Consider 12 compounds from US10981926B2 (Janssen Pharmaceutica NV, priority 2016, dated 2021).

Bounds are passed on as bounds.

Format in all cases: cell-based
For experiment [1], the target named is T1, wild-type Androgen Receptor (AR-wt) (Homo sapiens (Human), UniProt P10275). Kind of experiment: LNCaP-AR-wt ANT reporter assay (antagonist mode). Conditions: for IC50: read-out: LNCaP-AR-wt ANT pIC50 (converted); for Emax: read-out: LNCaP-AR-wt ANT MAX % Inh. Background: Reporter assays use an easily measured gene product as a stand-in for the process of interest.
T1 sequence (P10275 whole entry): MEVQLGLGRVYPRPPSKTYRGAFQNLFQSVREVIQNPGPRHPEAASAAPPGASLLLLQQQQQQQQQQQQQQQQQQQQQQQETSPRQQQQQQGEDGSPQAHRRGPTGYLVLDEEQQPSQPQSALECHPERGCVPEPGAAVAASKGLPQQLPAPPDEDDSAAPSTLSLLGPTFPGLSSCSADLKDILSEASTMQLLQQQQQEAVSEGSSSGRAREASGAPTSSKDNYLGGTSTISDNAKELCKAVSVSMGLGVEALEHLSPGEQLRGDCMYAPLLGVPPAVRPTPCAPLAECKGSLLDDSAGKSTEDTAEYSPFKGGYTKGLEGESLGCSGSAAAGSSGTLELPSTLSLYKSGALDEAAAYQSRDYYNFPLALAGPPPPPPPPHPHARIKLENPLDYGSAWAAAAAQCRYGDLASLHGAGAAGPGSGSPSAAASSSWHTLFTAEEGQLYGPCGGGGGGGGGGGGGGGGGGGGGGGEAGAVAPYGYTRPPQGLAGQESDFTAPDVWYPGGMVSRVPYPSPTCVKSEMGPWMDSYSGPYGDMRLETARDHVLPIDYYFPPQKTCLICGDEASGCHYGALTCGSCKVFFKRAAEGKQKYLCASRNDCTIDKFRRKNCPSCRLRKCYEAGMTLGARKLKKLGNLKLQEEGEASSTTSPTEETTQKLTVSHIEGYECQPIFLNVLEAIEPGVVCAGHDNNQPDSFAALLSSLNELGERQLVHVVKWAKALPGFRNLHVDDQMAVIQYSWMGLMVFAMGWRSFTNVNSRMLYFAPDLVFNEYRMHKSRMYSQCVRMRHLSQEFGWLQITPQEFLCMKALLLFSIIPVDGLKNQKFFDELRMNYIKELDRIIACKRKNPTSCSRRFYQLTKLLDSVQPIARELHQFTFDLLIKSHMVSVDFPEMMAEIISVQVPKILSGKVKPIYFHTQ

Experiment [2] has as its target T2, F876L mutant Androgen Receptor (AR-F876L) (Homo sapiens (Human), UniProt P10275, F877L). Kind of experiment: LNCaP-AR-F876L AG reporter assay (agonist mode). The following applies: for EC50: read-out: LNCaP-AR-F876L AG pEC50 (converted); for Emax: read-out: LNCaP-AR-F876L AG MAX % Stim.
In experiment [3] the target is T1, wild-type Androgen Receptor (AR-wt). Kind of experiment: LNCaP-AR-wt AG reporter assay (agonist mode). Conditions: for EC50: read-out: LNCaP-AR-wt AG pEC50 (converted); for Emax: read-out: LNCaP-AR-wt AG MAX % Stim.
The target in experiment [4] is T2, F876L mutant Androgen Receptor (AR-F876L). As to the kind of experiment: LNCaP-AR-F876L ANT reporter assay (antagonist mode). Conditions: for IC50: read-out: LNCaP-AR-F876L ANT pIC50 (converted); for Emax: read-out: LNCaP-AR-F876L ANT MAX % Inh.
[5] abbreviates: antagonist mode, pIC50 = −Log10(IC50 in Molar).
Where [6] appears, read: maximum % inhibition of R1881 control response over the tested concentration range.
Setting [7] is: agonist mode, pEC50 = −Log10(EC50 in Molar).
[8] abbreviates: maximum % stimulation (agonist response) over the tested concentration range.
The mark [9] stands for this setting: antagonist mode, maximum % inhibition of R1881 control response over tested concentration range.
Setting [10] is: agonist mode, maximum % stimulation over tested concentration range.

T2 sequence (P10275 whole entry F877L): as the sequence (P10275 whole entry) above, with F877L counted along it

Consider `N#Cc1ncc(N2C(=O)C3(CCC3)N(c3ccc(OC4CC5CC4CN5)nc3)C2=S)cc1C(F)(F)F` [Cpd 165, (R,S)-5-[8-[6-(2-azabicyclo[2.2.1]heptan-5-yloxy)-3-pyridyl]-5-oxo-7-thioxo-6,8-diazaspiro[3.4]octan-6-yl]-3-(trifluoromethyl)pyridine-2-carbonitrile], for which the figures for the IC50 in experiment [1] (setting [5]) and in experiment [4] (setting [5]) were 324 nM and 316 nM, respectively. Further, the Emax in experiment [1] (setting [6]) worked out at 101%; in experiment [2] (setting [8]), 0%; in experiment [3] (setting [8]) it was 0.2%; in experiment [4] (setting [6]), 100%. Besides, the EC50 in experiment [2] (setting [7]) and in experiment [3] (setting [7]) was over 15100 nM in each case.
Regarding `N#Cc1ncc(N2C(=O)C3(CCC3)N(c3ccc(OC4CCCNCC4)cc3)C2=S)cc1C(F)(F)F` (stereo not drawn) [Cpd 17, 5-[8-(4-azaperhydroepin-4-yloxyphenyl)-5-oxo-7-thioxo-6,8-diazaspiro[3.4]oct-6-yl]-3-(trifluoromethyl)pyridine-2-carbonitrile], the results for the IC50 in experiment [1] (setting [5]) and in experiment [4] (setting [5]) were 1510 nM and 457 nM, respectively. Besides, the Emax was found to be 98.5% in experiment [1] (setting [6]), 0.3% in experiment [3] (setting [8]) and 100% in experiment [4] (setting [6]). The EC50 in experiment [2] (setting [7]) and in experiment [3] (setting [7]) was over 15100 nM each time. For the same compound, in experiment [2] (setting [8]), the “LNCaP-AR-F876L AG MAX % Stim” value is recorded as 0.1%.
Take `N#Cc1ncc(N2C(=O)C3(CCC3)N(c3ccc4[nH]ncc4c3)C2=S)cc1Cl` [Cpd 155, 3-chloro-5-[8-(1H-indazol-5-yl)-5-oxo-7-thioxo-6,8-diazaspiro[3.4]octan-6-yl]pyridine-2-carbonitrile]: the IC50 was 302 nM in experiment [1] (setting [5]) and 219 nM in experiment [4] (setting [5]). Also, the Emax was 97.4% in experiment [1] (setting [6]), 2.6% in experiment [2] (setting [8]), 1.1% in experiment [3] (setting [8]) and 98% in experiment [4] (setting [6]). The EC50 in experiment [2] (setting [7]) and in experiment [3] (setting [7]) was over 15100 nM in each case.
Consider `CN1CCC(C)(Oc2ccc(N3C(=S)N(c4cnc(C#N)c(C(F)(F)F)c4)C(=O)C34CCC4)cc2)CC1` [Cpd 143, 5-[8-[4-[(1,4-dimethyl-4-piperidyl)oxy]phenyl]-5-oxo-7-thioxo-6,8-diazaspiro[3.4]octan-6-yl]-3-(trifluoromethyl)pyridine-2-carbonitrile], for which the IC50 in experiment [1] (setting [5]) is 1350 nM; in experiment [4] (setting [5]) it was 355 nM. Moreover, the Emax in experiment [1] (setting [6]) was 103%; in experiment [2] (setting [8]), 0.4%; in experiment [3] (setting [8]) it was -0.2%; in experiment [4] (setting [6]) it was 101%. In addition, the EC50 in experiment [2] (setting [7]) and in experiment [3] (setting [7]) was over 15100 nM in each case.
As for `Cc1cc(N2C(=O)C3(CCC3)N(c3cnc(OC4CCNCC4)nc3)C2=S)cnc1C#N` [Cpd 246, 3-methyl-5-[5-oxo-8-[2-(4-piperidyloxy)pyrimidin-5-yl]-7-thioxo-6,8-diazaspiro[3.4]octan-6-yl]pyridine-2-carbonitrile], the Emax came out at 0% in experiment [1] (setting [9]), 0.2% in experiment [2] (setting [10]), 0.1% in experiment [3] (setting [10]) and 99.5% in experiment [4] (setting [9]). The values for the IC50 in experiment [1] (setting [5]) and in experiment [4] (setting [5]) were 1120 nM and 1150 nM, respectively. For the same compound, the EC50 in experiment [2] (setting [7]) and in experiment [3] (setting [7]) was over 15100 nM in each case.
On to `COc1cc(N2C(=O)C3(CCC3)N(c3ccc4c(cnn4C4CCNCC4)c3)C2=S)cnc1C#N` [Cpd 211, 3-methoxy-5-[5-oxo-8-[1-(4-piperidyl)indazol-5-yl]-7-thioxo-6,8-diazaspiro[3.4]octan-6-yl]pyridine-2-carbonitrile], for which the Emax was found to be 101% in experiment [1] (setting [9]), 0.1% in experiment [2] (setting [10]), 0.5% in experiment [3] (setting [10]) and 101% in experiment [4] (setting [9]). The IC50 in experiment [1] (setting [5]) is 1050 nM; in experiment [4] (setting [5]), 363 nM. In addition, the EC50 in experiment [2] (setting [7]) and in experiment [3] (setting [7]) was over 15100 nM each time.
Consider `N#Cc1ncc(N2C(=O)C3(CCC3)N(c3ccc4c(cnn4CCO)c3)C2=S)cc1Cl` [Cpd 163, 3-chloro-5-[8-[1-(2-hydroxyethyl)indazol-5-yl]-5-oxo-7-thioxo-6,8-diazaspiro[3.4]octan-6-yl]pyridine-2-carbonitrile], for which the IC50 in experiment [1] (setting [5]) is 724 nM; in experiment [4] (setting [5]), 288 nM. Also, the Emax is 100% in experiment [1] (setting [6]), 0.1% in experiment [2] (setting [8]), 0.4% in experiment [3] (setting [8]) and 99.3% in experiment [4] (setting [6]). For the same compound, the EC50 in experiment [2] (setting [7]) and in experiment [3] (setting [7]) was over 15100 nM throughout.
`CN1CCC(NC(=O)c2ccc(N3C(=S)N(c4cnc(C#N)c(C(F)(F)F)c4)C(=O)C34CCC4)cc2)C1` (stereo not drawn) [Cpd 192, 4-[6-[6-cyano-5-(trifluoromethyl)-3-pyridyl]-5-oxo-7-thioxo-6,8-diazaspiro[3.4]octan-8-yl]-N-(1-methylpyrrolidin-3-yl)benzamide]: the Emax was determined as 101% in experiment [1] (setting [9]), 0.1% in experiment [2] (setting [10]), 0% in experiment [3] (setting [10]) and 102% in experiment [4] (setting [9]). For the same compound, the IC50 in experiment [1] (setting [5]) is 1580 nM; in experiment [4] (setting [5]) it was 692 nM. The EC50 in experiment [2] (setting [7]) and in experiment [3] (setting [7]) was over 15100 nM in each case.
As to `CCNC(=O)n1cc(-c2ccc(N3C(=S)N(c4cnc(C#N)c(C)c4)C(=O)C34CCC4)cc2)cn1` [Cpd 10, (4-{4-[7-(6-cyano-5-methyl(3-pyridyl))-8-oxo-6-thioxo-5,7-diazaspiro[3.4]oct-5-yl]phenyl}pyrazolyl)-N-ethylcarboxamide], the IC50 is 339 nM in experiment [1] (setting [5]) and 275 nM in experiment [4] (setting [5]). Besides, the Emax amounted to 102% in experiment [1] (setting [6]), 0.9% in experiment [2] (setting [8]), 0.5% in experiment [3] (setting [8]) and 100% in experiment [4] (setting [6]). In addition, the EC50 in experiment [2] (setting [7]) and in experiment [3] (setting [7]) was over 15100 nM in each case.
With `CN(C)C1(COc2ccc(N3C(=S)N(c4cnc(C#N)c(C(F)(F)F)c4)C(=O)C34CCC4)cc2)COC1` [Cpd 208, 5-[8-[4-[[3-(dimethylamino)oxetan-3-yl]methoxy]phenyl]-5-oxo-7-thioxo-6,8-diazaspiro[3.4]octan-6-yl]-3-(trifluoromethyl)pyridine-2-carbonitrile], the Emax in experiment [1] (setting [9]) came to 103%; in experiment [2] (setting [10]), 0%; in experiment [3] (setting [10]), 0%; in experiment [4] (setting [9]) it was 101%. In addition, the IC50 in experiment [1] (setting [5]) was 871 nM; in experiment [4] (setting [5]), 1020 nM. The EC50 in experiment [2] (setting [7]) and in experiment [3] (setting [7]) was over 15100 nM each time.
With `CC(C)(C)OC(=O)N1C2CCC1CC(c1ccc(N3C(=S)N(c4cnc(C#N)c(C(F)(F)F)c4)C(=O)C34CCC4)cc1)C2` (stereo not drawn) [Cpd 113, tert-butyl 3-[4-[6-[6-cyano-5-(trifluoromethyl)-3-pyridyl]-5-oxo-7-thioxo-6,8-diazaspiro[3.4]octan-8-yl]phenyl]-8-azabicyclo[3.2.1]octane-8-carboxylate], the “LNCaP-AR-wt ANT pIC50” value in experiment [1] (setting [5]) turned out to be 6.35. For the same compound, the Emax amounted to 89% in experiment [1] (setting [6]), 1.8% in experiment [2] (setting [8]), 0.3% in experiment [3] (setting [8]) and 83.6% in experiment [4] (setting [6]). Moreover, the “LNCaP-AR-F876L AG pEC50” value in experiment [2] (setting [7]) is given as under 4.82. The “LNCaP-AR-wt AG pEC50” value in experiment [3] (setting [7]) is given as under 4.82. Besides, in experiment [4] (setting [5]), the “LNCaP-AR-F876L ANT pIC50” value was 6.26.
With `C[N@+]1([O-])CC[C@H](Oc2ccc(N3C(=S)N(c4cnc(C#N)c(C(F)(F)F)c4)C(=O)C34CCC4)cc2)CC1` [Cpd 190, 5-[8-[4-(1-methyl-1-oxido-piperidin-1-ium-4-yl)oxyphenyl]-5-oxo-7-thioxo-6,8-diazaspiro[3.4]octan-6-yl]-3-(trifluoromethyl)pyridine-2-carbonitrile], the Emax in experiment [1] (setting [9]) is 95.3%; in experiment [2] (setting [10]) it was 0.1%; in experiment [3] (setting [10]), -0.1%; in experiment [4] (setting [9]), 97.4%. Also, the IC50 was 3020 nM in experiment [1] (setting [5]) and 1660 nM in experiment [4] (setting [5]). Also, the EC50 in experiment [2] (setting [7]) and in experiment [3] (setting [7]) was over 15100 nM each time.
